The values below come from US20200291082A1, “PREVENTION AND TREATMENT OF GRAFT-VERSUS-HOST-DISEASE WITH DEFENSINS” (priority 2017, published 2020).

For data set [1], the system named is bacteria at the surface of the intestinal mucosa. Kind of data set: anti microbial effect of orally administered defensins, mucin immunostaining and localization of bacteria by FISH (Example 16). Format: in vivo. The following applies: compared with mice on low fat or western diet. The method, then: Anti microbial effect of orally administered defensins (HD5 and hBD-2).
Mucus immunostaining was paired with fluorescent in situ hybridization (FISH), as previously described in order to analyze bacteria localization at the surface of the intestinal mucosa. Briefly, colonic tissues (proximal colon, 2nd cm from the cecum) without fecal material were placed in methanol-Carnoy's fixative solution (60% methanol, 30% chloroform, 10% glacial acetic acid) for a minimum of 3 hours at room temperature. Tissues were then washed in methanol 2×30 min, ethanol 2×15 min, ethanol/xylene (1:1), 15 min and xylene 2×15 min, followed by embedding in Paraffin with a vertical orientation. Five pm sections were performed and dewax by preheating at 60° C. for 10 min, followed by xylene 60° C. for 10 min, xylene for 10 min and 99.5% ethanol for 10 minutes. Hybridization step was performed at 50° C. overnight with EUB338 probe (5′-GCTGCCTCCCGTAGGAGT-3′, with a 5′ labeling using Alexa 647) diluted to a final concentration of 10 μg/mL in hybridization buffer (20 mM Tris-HCl, pH 7.4, 0.9 M NaCl, 0.1% SDS, 20% formamide). After washing 10 min in wash buffer (20 mM Tris-HCl, pH 7.4, 0.9 M NaCl) and 3×10 min in PBS, PAP pen (Sigma-Aldrich) was used to mark around the section and block solution (5% fetal bovine serum in PBS) was added for 30 min at 4° C. […]

The test system of data set [2] is house dust mite model of allergic asthma. Description: therapeutic intranasal versus oral hBD2 in murine house dust mite model of allergic asthma (Example 10). Format: in vivo, BALB/c mice. The method, then: To determine and assess the efficacy of IN versus oral therapeutic intervention with defensins in a murine house dust mite model of allergic asthma.
Treatment regime: Female 7-10 weeks old BALB/c mice were randomly allocated into 7 study groups one day prior to study start and subcutaneously (SC) sensitized to house dust mite (100 μg HDM in 200 μL saline plus Freund's complete adjuvant in 0.9% saline). Mice were then intranasally (IN) challenged with HDM on day 14 (HDM 25 μg in 50 μL of saline). Dexamethasone was administered orally (1 mg/kg BID; 50 μL phosphate buffered saline (PBS)) on day 14. hBD2 was administered IN or orally (1.7 mg/kg TID IN; 0.4 mg/kg TID IN; 0.4 mg/kg TID orally, 50 μL phosphate buffered saline) on day 14. The initial dose was administered 60 minutes prior to challenge, and the subsequent doses approximately 6 hours apart (FIG. 5).
Airway inflammation: At 48 hours post challenge, bronchoalveolar lavage was performed washing the lungs with 3 volumes of cold PBS (0.4; 0.3 and 0.3 mL, total 1 mL). Total and differential leucocyte cell counts were determined on an automated haematological analyser Sysmex XT-2000iV.
Data are represented as airway resistance at […] methacholine and as dose responsive curves.
Lung sampling for cytokine analysis: After completion of every BAL, lungs were removed from the thorax, snap frozen in liquid nitrogen and stored frozen at −80 degrees Celsius until analysis of cytokine concentration of IL-1β, TNF-α, IL-6, IL-10 and IFNγ by ELISA.

The test system of data set [3] is acute graft versus host disease following stem cell transplantation. Kind of data set: prophylactic oral hBD-2 versus cyclosporine in murine model of acute graft versus host disease (Example 14). It is filed as in vivo, BALB/c mice. The method, then: To determine and assess the efficacy of prophylactic treatment with oral hBD-2 versus cyclosporine in a murine model of acute graft versus host disease following stem cell transplantation.
Treatment regime: 20 female BALB/c mice were irradiated with 4.5 Gy (2×498 sec) at intervals of at least 4 hours on day 0. Bone marrow was harvested: hind limbs harvested from 2 female WT C57BL/6 mice aseptically. Skeletal muscle was removed and epiphysis cut away. Lumen of bone flushed with PBS and cells pelleted and taken up. Harvest of T-cells: spleens from 2 female WT C57BL/6 mice were meshed through a […] cell strainer into a PBS filled dish. Cells were taken up in PBS and transferred into a 50 mL falcon tube and spun down. Cells were taken up in 1 mL PBS and 20 μL of CD4 microbead+20 μL CD8 microbeads per spleen added for incubation for 20 min at 4 degrees C. Cells were washed with PBS and applied to MACS separation in order to positively select CD4+ and CD8+ cells. Positively selected T-cells were counted and taken up. Transplantation: directly after the second irradiation, all WT BALB/c recipient mice were injected with 5×1.000.000 BM cells (50 μL) i.v. into the retroorbital venous plexus under isoflurane anesthesia. 20 BALB/c mice were treated with 1.2 mg of hBD2/kg BW/day (n=7); 50 mg cyclosporine/kg BW on days 0, 3, 6 and 9 (n=7) or 100 μL PBS per day vial oral gavage (n=6) from day 0-10.
The mice were weighed at regular intervals during the study and survival was monitored for 90 days.

For data set [4], the system named is Dextran Sodium Sulphate induced colitis. Kind of data set: prophylactic murine 10-day oral Dextran Sodium Sulphate induced colitis model, s.c. and i.v. hBD2 versus i.p. mouse anti TNF-α (Example 1). Format: in vivo, C57BL/6 mice. Conditions: for histological score of distal colon: FIG. 9; for disease activity index (DAI): 10 days. The method, then: Anti-inflammatory effect of s.c. and i.v. administration of hBD2 versus intraperitoneal mouse anti TNF-α in a prophylactic, murine, 10-day, oral Dextran Sodium Sulphate induced colitis model.
70 male C57BL/6 mice housed in groups of five per cage were allocated to 7 different treatment groups. All animals had their drinking water supplemented with DSS 2% for 7 days to induce colitis resulting in significant inflammation and injury of the colonic tissue. The animals were treated with hBD2 dosed intravenously in the tail vein or subcutaneously under the dorsal skin, with mouse anti TNF-α intraperitoneally or PBS as vehicle for 10 days.
A disease activity index (DAI) scoring system was applied for clinical assessment (FIG. 7). The animals were sacrificed on day 10 and colon removed for histological assessment employing a histological scoring system (FIG. 8).

[5] abbreviates: dexamethasone 1 mg/kg BID oral, hBD2 both IN doses (0.4 mg/kg/day TID and 1.7 mg/kg/day TID).
The mark [6] stands for this setting: hBD2 both oral and intranasal TID on day 14, versus HDM challenged vehicle.

No end group written: not given here.

Turning to “human beta defensin 2 (GIGDPVTCLKSGAICHPVFCPRRYKQIGTCGLPGTKCCKKP; not fully specified (bridges); ends and bridges not checked; listed as Homo sapiens) [hBD2]”, in data set [1], the “lysis zone, distance between intestinal wall and bacterial population” value is “profound effect on the distance”. In data set [2] (setting [5]), the “eosinophil counts in BALF” value is on record as “trend towards lowering of eosinophils”, the “macrophage counts in BALF” value is recorded as “significantly inhibited”, the “neutrophil counts in BALF” value is given as “significantly inhibited” and the “total cell counts in BALF” value is listed as “significantly inhibited”. Besides, in data set [2] (hBD2, both dosing routes), the “IL-6 level in lung tissue homogenates” value was “significant effects” and the “IL-10 level in lung tissue homogenates” value is recorded as “significant effects”. In addition, in data set [2] (setting [6]), the airway resistance result was “effectively inhibited increase of airway resistance” and the pulmonary compliance result is “effectively inhibited”. For the same substance, the “TNF-α level in lung tissue homogenates” value in data set [2] (intranasally administered hBD2) is “differed from the control but not significantly”. Further, the “TNF-α level in lung tissue homogenates” value in data set [2] (perorally administered hBD2) is on record as “significantly reduced TNF-α”. In addition, the mortality result in data set [3] (FIG. 56, 7 mice treated with oral hBD-2 for 10 days) is “statistically significant reduction of mortality”. For the same substance, the “weight loss following bone marrow transplantation” value in data set [3] (compared with PBS treated mice) is on record as “lost statistically significantly less weight”. Moreover, the “treated animals that had died by day 90” value in data set [3] (oral hBD-2 1.2 mg/kg/day day 0-10 (n=7), cyclosporine 50 mg/kg on days 0, 3, 6 and 9 (n=7), all but one of PBS mice (n=6) died) stood at 1. Also, in data set [4] (hBD2 0.1 mg/kg compared with mouse anti TNF-α), the “histological score of distal colon” value was “statistically significant superiority”. Further, the “histological score of distal colon” value in data set [4] (subcutaneous compared with i.v. hBD2 administration) is “superiority over i.v. administration”. The “disease activity index (DAI)” value in data set [4] (hBD2 intravenous administration) is recorded as “significant reduction of DAI”. The histology score result in data set [4] (hBD2 s.c. twice daily, colon day 10) is given as “highly statistical significant effect on histology score”. Further, the “disease activity index (DAI)” value in data set [4] (hBD2 subcutaneous route, once or twice daily) is given as “most significant effect”.
